Results from PubChem BioAssay (NCI).
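Cultured in 96-well plates, cells were exposed to test compound for 48 hours across five concentrations. GI50 is the concentration that inhibits growth by half. At the TGI there is no net growth.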

Experiments:
Experiment in all cases: DTP human tumour cell line panel, 48 h
CAKI-1 renal = tested on: CAKI-1 renal
NCI-H226 lung = tested on: NCI-H226 lung
PC-3 prostate = tested on: PC-3 prostate
SK-MEL-5 melanoma = tested on: SK-MEL-5 melanoma
RPMI-8226 leukemia = tested on: RPMI-8226 leukemia
NCI/ADR-RES ovarian = tested on: NCI/ADR-RES ovarian
SK-MEL-2 melanoma = tested on: SK-MEL-2 melanoma
HOP-62 NSCLC = tested on: HOP-62 NSCLC
LOX IMVI melanoma = tested on: LOX IMVI melanoma
MCF7 breast = tested on: MCF7 breast
OVCAR-5 ovarian = tested on: OVCAR-5 ovarian
UACC-62 melanoma = tested on: UACC-62 melanoma
SF-295 CNS = tested on: SF-295 CNS
MOLT-4 leukemia = tested on: MOLT-4 leukemia
M14 melanoma = tested on: M14 melanoma
OVCAR-8 ovarian = tested on: OVCAR-8 ovarian
HT29 colon = tested on: HT29 colon
A549 NSCLC = tested on: A549 NSCLC
TK-10 renal = tested on: TK-10 renal
OVCAR-4 ovarian = tested on: OVCAR-4 ovarian
NCI-H23 lung = tested on: NCI-H23 lung
DU-145 prostate = tested on: DU-145 prostate
U251 CNS = tested on: U251 CNS
SR leukemia = tested on: SR leukemia
SNB-75 CNS = tested on: SNB-75 CNS
OVCAR-3 ovarian = tested on: OVCAR-3 ovarian
786-0 renal = tested on: 786-0 renal
SW-620 colon = tested on: SW-620 colon
MDA-MB-231 breast = tested on: MDA-MB-231 breast
HOP-92 NSCLC = tested on: HOP-92 NSCLC
RXF 393 renal = tested on: RXF 393 renal
HCC-2998 colon = tested on: HCC-2998 colon
SN12C renal = tested on: SN12C renal
T-47D breast = tested on: T-47D breast
SNB-19 CNS = tested on: SNB-19 CNS
A498 renal = tested on: A498 renal
COLO 205 colon = tested on: COLO 205 colon
SK-OV-3 ovarian = tested on: SK-OV-3 ovarian
HS 578T breast = tested on: HS 578T breast
UACC-257 melanoma = tested on: UACC-257 melanoma
CCRF-CEM leukemia = tested on: CCRF-CEM leukemia
NCI-H460 lung = tested on: NCI-H460 lung
SF-268 CNS = tested on: SF-268 CNS
K-562 leukemia = tested on: K-562 leukemia
KM12 colon = tested on: KM12 colon
SF-539 CNS = tested on: SF-539 CNS
MDA-MB-435 = tested on: MDA-MB-435

In the case of `COC(=O)c1ccc(NC2=C(Cl)C(=O)C(C)=C(C)C2=O)cc1`, the GI50 (CAKI-1 renal) is reported as 2950 nM, the TGI (CAKI-1 renal) is reported as > 100 µM and the GI50 (NCI-H226 lung) is reported as 5.82 µM. The TGI (NCI-H226 lung) was > 100 µM, the GI50 (PC-3 prostate) was 2630 nM and the TGI (PC-3 prostate) was > 100 µM. The GI50 (SK-MEL-5 melanoma) was 1920 nM, the TGI (SK-MEL-5 melanoma) was 4.08 µM and the GI50 (RPMI-8226 leukemia) was 2190 nM. It also gave a TGI (RPMI-8226 leukemia) of 5.29 µM, a GI50 (NCI/ADR-RES ovarian) of 2650 nM and a TGI (NCI/ADR-RES ovarian) of 10.9 µM. For the same compound, the GI50 (SK-MEL-2 melanoma) was 3.2 µM, the TGI (SK-MEL-2 melanoma) was > 100 µM and the GI50 (HOP-62 NSCLC) was 5.52 µM. For the same compound, the TGI (HOP-62 NSCLC) was > 100 µM, the GI50 (LOX IMVI melanoma) was 1810 nM and the TGI (LOX IMVI melanoma) was 3.41 µM. The GI50 (MCF7 breast) was 2660 nM, the TGI (MCF7 breast) was > 100 µM and the GI50 (OVCAR-5 ovarian) was 6.08 µM. The TGI (OVCAR-5 ovarian) was > 100 µM, the GI50 (UACC-62 melanoma) was 1770 nM and the TGI (UACC-62 melanoma) was 5.53 µM. The GI50 (SF-295 CNS) was 2180 nM, the TGI (SF-295 CNS) was 6.64 µM and the GI50 (MOLT-4 leukemia) was 1430 nM. It also gave a TGI (MOLT-4 leukemia) of 5.13 µM, a GI50 (M14 melanoma) of 2840 nM and a TGI (M14 melanoma) of 40.5 µM. For the same compound, the GI50 (OVCAR-8 ovarian) was 6.89 µM, the TGI (OVCAR-8 ovarian) was > 100 µM and the GI50 (HT29 colon) was 6.64 µM. The TGI (HT29 colon) was > 100 µM, the GI50 (A549 NSCLC) was 5.25 µM and the TGI (A549 NSCLC) was > 100 µM. The GI50 (TK-10 renal) was > 100 µM, the TGI (TK-10 renal) was > 100 µM and the GI50 (OVCAR-4 ovarian) was 1730 nM. For the same compound, the TGI (OVCAR-4 ovarian) was 3.14 µM, the GI50 (NCI-H23 lung) was 3.77 µM and the TGI (NCI-H23 lung) was > 100 µM. For the same compound, the GI50 (DU-145 prostate) was 11.2 µM, the TGI (DU-145 prostate) was > 100 µM and the GI50 (U251 CNS) was 3.77 µM. For the same compound, the TGI (U251 CNS) was > 100 µM, the GI50 (SR leukemia) was 1220 nM and the TGI (SR leukemia) was 4.02 µM. The GI50 (SNB-75 CNS) was 1600 nM, the TGI (SNB-75 CNS) was 7.31 µM and the GI50 (OVCAR-3 ovarian) was 1810 nM. The TGI (OVCAR-3 ovarian) was 3.3 µM, the GI50 (786-0 renal) was 15.1 µM and the TGI (786-0 renal) was > 100 µM. It also gave a GI50 (SW-620 colon) of 2100 nM, a TGI (SW-620 colon) of 4.42 µM and a GI50 (MDA-MB-231 breast) of 2680 nM. The TGI (MDA-MB-231 breast) was 7.71 µM, the GI50 (HOP-92 NSCLC) was 1460 nM and the TGI (HOP-92 NSCLC) was 3.11 µM. It also gave a GI50 (RXF 393 renal) of 1750 nM, a TGI (RXF 393 renal) of 4.25 µM and a GI50 (HCC-2998 colon) of 3.84 µM. For the same compound, the TGI (HCC-2998 colon) was > 100 µM, the GI50 (SN12C renal) was 9.11 µM and the TGI (SN12C renal) was > 100 µM. The GI50 (T-47D breast) was 1740 nM, the TGI (T-47D breast) was 4.72 µM and the GI50 (SNB-19 CNS) was 3.32 µM. For the same compound, the TGI (SNB-19 CNS) was > 100 µM, the GI50 (A498 renal) was 2060 nM and the TGI (A498 renal) was 96.7 µM. The GI50 (COLO 205 colon) was 7.69 µM, the TGI (COLO 205 colon) was > 100 µM and the GI50 (SK-OV-3 ovarian) was 5.13 µM. For the same compound, the TGI (SK-OV-3 ovarian) was > 100 µM, the GI50 (HS 578T breast) was 4 µM and the TGI (HS 578T breast) was 93.8 µM. The GI50 (UACC-257 melanoma) was 3.07 µM, the TGI (UACC-257 melanoma) was > 100 µM and the GI50 (CCRF-CEM leukemia) was 1080 nM. For the same compound, the TGI (CCRF-CEM leukemia) was 4.98 µM, the GI50 (NCI-H460 lung) was 4.7 µM and the TGI (NCI-H460 lung) was > 100 µM. For the same compound, the GI50 (SF-268 CNS) was 3.79 µM, the TGI (SF-268 CNS) was > 100 µM and the GI50 (K-562 leukemia) was 1580 nM. For the same compound, the TGI (K-562 leukemia) was 5.31 µM, the GI50 (KM12 colon) was 2060 nM and the TGI (KM12 colon) was 4.64 µM. For the same compound, the GI50 (SF-539 CNS) was 2330 nM, the TGI (SF-539 CNS) was 5.91 µM and the GI50 (MDA-MB-435) was 1840 nM. It also gave a TGI (MDA-MB-435) of 8.73 µM.
